Data: PMC7403668, “Intellectual disability‐associated gene ftsj1 is responsible for 2′‐O‐methylation of specific tRNAs” (EMBO Reports, 2020)

Assays:
[1] = target: T1, FTSJ1-WDR6 (Homo sapiens, UniProt Q9UET6); assay: tRNA […]'-O-methyl transfer, UPLC-MS/MS of Gm34; type: biochemical; settings: methyl donor, 100 μM SAM; co-substrate 5 μM tRNAPhe(GAA) from ftsj1 KO cells or with m1G37; 10 mM MgCl2, pH 7.5, 37°C, 2 h
T1 construct: mixture of FTSJ1 (C-terminal His6, High Five cells) and WDR6 (N-terminal GST, Sf9 cells), purified separately; binary complex; with tRNA (34-2'-O)-methyltransferase regulator WDR6
T1 sequence (Q9UET6 1-327 isoform Q9UET6-2): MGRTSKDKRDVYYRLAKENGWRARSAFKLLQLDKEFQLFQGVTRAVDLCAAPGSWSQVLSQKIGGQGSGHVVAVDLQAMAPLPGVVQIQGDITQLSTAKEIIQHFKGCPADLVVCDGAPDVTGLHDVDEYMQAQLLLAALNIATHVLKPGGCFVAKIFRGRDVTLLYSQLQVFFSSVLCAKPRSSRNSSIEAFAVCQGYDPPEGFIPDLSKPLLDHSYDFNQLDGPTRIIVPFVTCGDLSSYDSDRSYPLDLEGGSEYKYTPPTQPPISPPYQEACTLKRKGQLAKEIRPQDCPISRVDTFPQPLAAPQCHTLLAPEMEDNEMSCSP
T1 sequence (Q9NNW5 1-1121 partner): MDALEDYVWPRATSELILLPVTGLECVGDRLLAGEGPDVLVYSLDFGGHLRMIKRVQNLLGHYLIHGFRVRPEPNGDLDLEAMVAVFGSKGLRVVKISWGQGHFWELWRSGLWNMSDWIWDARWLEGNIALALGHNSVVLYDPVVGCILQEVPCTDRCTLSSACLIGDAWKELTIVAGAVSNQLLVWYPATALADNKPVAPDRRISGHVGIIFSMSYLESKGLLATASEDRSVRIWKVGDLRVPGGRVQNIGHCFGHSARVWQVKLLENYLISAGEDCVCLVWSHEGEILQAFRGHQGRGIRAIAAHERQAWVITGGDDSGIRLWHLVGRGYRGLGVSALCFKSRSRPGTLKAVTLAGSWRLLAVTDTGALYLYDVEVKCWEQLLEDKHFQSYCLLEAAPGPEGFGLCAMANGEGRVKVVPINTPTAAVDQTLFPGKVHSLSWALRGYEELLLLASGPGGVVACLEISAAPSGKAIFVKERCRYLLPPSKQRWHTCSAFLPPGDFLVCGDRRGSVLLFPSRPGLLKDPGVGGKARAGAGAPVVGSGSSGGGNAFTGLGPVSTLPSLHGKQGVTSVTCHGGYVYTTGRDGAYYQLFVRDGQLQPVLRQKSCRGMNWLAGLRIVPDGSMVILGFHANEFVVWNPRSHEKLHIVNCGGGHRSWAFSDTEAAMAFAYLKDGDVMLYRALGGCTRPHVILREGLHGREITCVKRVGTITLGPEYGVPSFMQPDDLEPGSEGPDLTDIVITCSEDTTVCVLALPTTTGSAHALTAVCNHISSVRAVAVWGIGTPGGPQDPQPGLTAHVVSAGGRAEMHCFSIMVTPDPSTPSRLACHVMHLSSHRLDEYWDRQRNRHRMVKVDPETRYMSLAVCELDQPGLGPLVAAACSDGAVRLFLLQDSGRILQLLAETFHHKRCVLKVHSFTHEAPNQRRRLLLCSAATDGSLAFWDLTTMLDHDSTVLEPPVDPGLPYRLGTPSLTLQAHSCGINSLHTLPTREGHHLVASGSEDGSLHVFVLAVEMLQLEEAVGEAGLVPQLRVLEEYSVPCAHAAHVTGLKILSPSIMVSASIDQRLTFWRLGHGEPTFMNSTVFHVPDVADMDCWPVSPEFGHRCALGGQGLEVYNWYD

[2] = target: T2, FTSJ1 (FTSJ1-His) (Homo sapiens, UniProt Q9UET6); assay: isothermal titration calorimetry (iTC200), one-site model; type: binding
T2 construct: full-length, C-terminal His6-tag kept, baculovirus/High Five insect cells; cDNA from HeLa RNA; 327 residues as printed
T2 sequence (Q9UET6 1-327 isoform Q9UET6-2): T1 sequence (Q9UET6 1-327 isoform Q9UET6-2)

Kd [2]: ~4 µM
SMILES: C[S+](CC[C@H](N)C(=O)O)C[C@H]1O[C@@H](n2cnc3c(N)ncnc32)[C@H](O)[C@@H]1O (some centres unmarked) [SAM]
tRNA 2'-O-methyl transfer, UPLC-MS/MS of Gm34 [1]: robust Gm formation was detected after incubation with FTSJ1‐WDR6
